The text below walks through data of patent publication US20210139943A1, “MEDIUM AND PROCESS FOR THE CULTURE AND SELECTIVE ISOLATION OF THE BACTERIUM ENTEROCOCCUS HIRAE” (FONDATION MEDITERRANEE INFECTION, priority 2017, published 2021).

For series [1], the system named is E. faecium. In words: Determination of sugar: colour change on medium with indicator dye. It is filed as cell-based, Enterococcus faecium. The following applies: sugar in medium with bromocresol purple indicator dye. From the text:
(§1) To detect the consumption of sugar by bacteria, the inventors added to the medium of the present invention an indicator dye whose colour will vary according to the pH of the medium. Indeed, when the bacteria consume sugar, there is an acidification of the medium, which leads to a change in the indicator dye. To determine the most appropriate indicator dyer, the inventors tested several, including the following three: phenol red, bromocresol green and bromocresol purple. Based on concentrations in media already containing one of these indicator dyes, the inventors first chose to test a concentration of 25 mg/L [12] for each of the chosen indicators.
(§2) Once the indicator dye was chosen, the inventors were able to determine which sugar was most suitable for the present invention.
This sugar cannot therefore be used to isolate E. hirae.
(§3) Finally, the last sugar tested was mannitol. […] The inventors therefore chose mannitol as sugar for the formulation of said invention, at a concentration of 10 g/L, a concentration frequently found in culture media.

Series [2] deals with E. faecalis. The series is described as above. The following applies: sugar in medium with bromocresol purple indicator dye. The format is cell-based, Enterococcus faecalis.
Text: as §1, §2, §3

In series [3] the test system is E. hirae. The description is as above. It is filed as cell-based, Enterococcus hirae. The following applies: sugar in medium with bromocresol purple indicator dye.
Text: as §1, §2, §3

For series [4], the system named is Enterococcus faecium. Details: key: Variable refers to the fact that consumption of this sugar by E. faecium is strain dependent. The following applies: Table 1, literature data; cited from earlier work.
The nature of series [5]: Dilution of nalidixic acid in water. It is filed as physicochemical. How it is done:
In addition, the concentration of nalidixic acid was reduced from 250 mg/L to no more than 100 mg/L due to its poor dilution in water above 100 mg/L and colistin, a polypeptide antibiotic of the polymyxin family with action on Gram-negative bacteria, was added at a concentration of 25 mg/L to compensate.

Series [6] has as its system E. faecium. In words: Growth on media with different salt concentrations. The following applies: 60 g/L, 65 g/L, 70 g/L and 75 g/L salt. It is filed as cell-based, Enterococcus faecium. As to the method:
(§4) Since enterococci are resistant to high salt concentrations, in order to eliminate some Gram-positive bacteria other than enterococci and Gram-negative bacteria resistant to the inhibitors mentioned above, different concentrations of salt (sodium chloride) were tested to find the most appropriate one to add to the formulation of the present invention. Four concentrations were tested (60 g/L, 65 g/L, 70 g/L and 75 g/L).

Series [7] has as its system E. faecalis. Kind of series: Growth on media with different salt concentrations. The following applies: 60 g/L, 65 g/L, 70 g/L and 75 g/L salt. It is filed as cell-based, Enterococcus faecalis. As to the method: as §4
Series [8] deals with E. hirae. In words: Growth on media with different salt concentrations. The format is cell-based, Enterococcus hirae. As to the method:
as §4

Take `OC[C@@H](O)[C@@H](O)[C@H](O)[C@H](O)CO` [Mannitol, mannitol]: in series [1], the “Colour change of E. faecium colonies” value is “change in the colour of the medium and the colonies”. Also, the “Colour change of E. faecalis colonies” value in series [2] is “change in the colour of the medium and the colonies”. Moreover, the “Colour change of E. hirae colonies” value in series [3] is “remained colourless”.
Consider `OC[C@H]1O[C@H](OCC2O[C@@H](O)[C@H](O)[C@@H](O)[C@@H]2O)[C@H](O)[C@@H](O)[C@H]1O` (stereo partly drawn) [Melibiose, melibiose], for which the “Colour change of E. faecium colonies” value in series [1] is “variable results”. Besides, the “Sugar consumption by Enterococcus faecium” value in series [4] is reported as “V”.
For the compound `OC[C@H]1O[C@H](OC[C@H]2O[C@H](O[C@]3(CO)O[C@H](CO)[C@@H](O)[C@@H]3O)[C@H](O)[C@@H](O)[C@@H]2O)[C@H](O)[C@@H](O)[C@H]1O` [Raffinose, raffinose], the “Colour change of E. faecium colonies” value in series [1] is listed as “no colour change”. Further, in series [2], the “Colour change of E. faecalis colonies” value is reported as “no colour change”.
Turning to `CCn1cc(C(=O)O)c(=O)c2ccc(C)nc21` [nalidixic acid], the “Dilution in water (poor above this concentration)” value in series [5] was “no more than 100 mg/L”.
For the compound `[Cl-].[Na+]` [sodium chloride], the “Growth of E. faecium” value in series [6] is “had growth for each of the concentrations tested”. Further, the “Growth of E. faecalis” value in series [7] is “had growth for each of the concentrations tested”. Also, in series [8] (60 g/L, 65 g/L, 70 g/L and 75 g/L salt), the “Growth of E. hirae” value was “had growth for each of the concentrations tested”. Also, the “Size of E. hirae colonies” value in series [8] (reading the agars at 24 hours, 60 to 75 g/L salt) is “the higher the salt concentrations, the smaller the colonies”.
